Structures are written as SMILES. Like-named read-outs stand apart in the source and are kept apart here.

From patent USRE47689E1, “Compounds for treating spinal muscular atrophy” (PTC Therapeutics, Inc., priority 2011, dated 2019) come the findings set out here.

Data set [1] relates to SMN2 minigene (full length SMN2 minigene mRNA containing SMN2 exon 7). As to the kind of experiment: SMN2 minigene mRNA splicing RT-qPCR assay in cultured cells. Conditions: Homo sapiens, HEK293-H, read-out: EC1.5x for production of full length SMN2 mRNA. Type of data set: cell-based, human. In outline: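 Lysates → one-step RT-qPCR, minigene-specific primers (0.4 μM final) + GAPDH multiplex, 40 cycles. FL/GAPDH vs DMSO; EC1.5x, star-binned.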

Data set [2] deals with Smn protein. Nature of the data set: Smn protein assay in cultured cells (SMN HTRF). Type of data set: cell-based, human. Conditions: 48 hours; for maximum fold (Fold) increase of Smn protein: SMA patient fibroblast cells, 7-point concentration data, fold increase relative to vehicle control (SMN HTRF); for EC1.5x (concentration giving 1.5-fold Smn protein increase): SMA Type 1 patient fibroblast cells (GM03813), 7-point concentration curve, SMN HTRF, concentration producing 1.5 times Smn protein vs DMSO vehicle control, read-out: EC1.5x for Smn protein expression. In a few lines: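 Smn in SMA fibroblast lysates, measured by anti-SMN HTRF after 48 h compound exposure; EC1.5x from fold change over vehicle.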

[3] abbreviates: HEK293H cells stably transfected with SMN2-A minigene, 24 hours, 7-point concentration curve, 1.5-fold relative to vehicle-treated cells.

Compound `O=c1oc2cc(N3CCN(CCO)CC3)ccc2cc1-c1cn2cc(Cl)ccc2n1` [Compound 104, 3-(6-chloroimidazo[1,2-a]pyridin-2-yl)-7-[4-(2-hydroxyethyl)piperazin-1-yl]-2H-chromen-2-one] came in with a melting point of 245 to 250 °C. Moreover, the EC (1.5-fold) in data set [1] (setting [3]) lay within 3 to 30 µM. Besides, the “maximum fold (Fold) increase of Smn protein” value (shortened to “maximum fold (Fold) increase”) in data set [2] was “*** (fold increase between >1.35 and ≤1.5)”.
As to `Cc1cn2cc(-c3cc4ccc(CCCNC(C)CO)cc4oc3=O)nc2c(C)n1` (centres unmarked) [Compound 881, 3-(6,8-dimethylimidazo[1,2-a]pyrazin-2-yl)-7-{3-[(1-hydroxypropan-2-yl)amino]propyl}-2H-chromen-2-one], the melting point lay in the range of 181 to 184 °C. Also, the EC (1.5-fold) in data set [1] (setting [3]) was less than 0.1 µM. In data set [2], the EC1.5x (concentration giving 1.5-fold Smn protein increase) was less than 300 nM; the “maximum fold (Fold) increase” value is “**** (fold increase between >1.5 and ≤1.65)”.
`C[C@@H]1CN(c2ccc3cc(-c4cccs4)c(=O)oc3c2)C[C@H](C)N1` [Compound 364, 7-[(3R,5S)-3,5-dimethylpiperazin-1-yl]-3-(thiophen-2-yl)-2H-chromen-2-one]: the melting point was in the range of 150 to 152 °C. Further, the EC (1.5-fold) in data set [1] (24 h) was in the range of 1 to 3 µM. The “maximum fold (Fold) increase” value in data set [2] is listed as “* (maximum fold increase of ≤1.2)”.
`Cc1cn2cc(-c3cc4ccc(N5CCCNCC5)cc4oc3=O)cc2c(C)n1` [Compound 682, 7-(1,4-diazepan-1-yl)-3-(1,3-dimethylpyrrolo[1,2-a]pyrazin-7-yl)-2H-chromen-2-one] had a melting point of 187 to 190 °C. Further, the EC (1.5-fold) in data set [1] (setting [3]) was less than 0.1 µM. Further, in data set [2], the EC1.5x (concentration giving 1.5-fold Smn protein increase) was 1000 to 3000 nM; the “maximum fold (Fold) increase” value was “*** (fold increase between >1.35 and ≤1.5)”.
For `Cc1cc(F)c2nc(-c3cc4ccc(N5CCNC(C)(C)C5)cc4oc3=O)cn2c1` [Compound 426, 7-(3,3-dimethylpiperazin-1-yl)-3-(8-fluoro-6-methylimidazo[1,2-a]pyridin-2-yl)-2H-chromen-2-one], the melting point was 275 to 284 °C. Besides, the EC (1.5-fold) in data set [1] (setting [3]) was in the range of 0.1 to 0.3 µM. Besides, the “maximum fold (Fold) increase” value in data set [2] was “*** (fold increase between >1.35 and ≤1.5)”.
The compound `Cc1ccc2nc(-c3cc4ccc(N5CCNC(C)(C)C5)cc4oc3=O)cn2c1` [Compound 222, 7-(3,3-dimethylpiperazin-1-yl)-3-(6-methylimidazo[1,2-a]pyridin-2-yl)-2H-chromen-2-one] yielded a melting point of 177 to 180 °C. Besides, the EC (1.5-fold) in data set [1] (setting [3]) fell in the range of 1 to 3 µM. Besides, the “maximum fold (Fold) increase” value in data set [2] is reported as “* (maximum fold increase of ≤1.2)”.
Compound `Cc1cc(F)cn2cc(-c3cc4ccc(N5C[C@@H](C)N[C@@H](C)C5)cc4oc3=O)nc12` [Compound 331, 7-[(3R,5S)-3,5-dimethylpiperazin-1-yl]-3-(6-fluoro-8-methylimidazo[1,2-a]pyridin-2-yl)-2H-chromen-2-one] came in with a melting point of 290 to 300 °C. The EC (1.5-fold) in data set [1] (setting [3]) was in the range of 0.3 to 1 µM. In data set [2], the “maximum fold (Fold) increase” value is reported as “* (maximum fold increase of ≤1.2)”.
Take `COCCNCCCc1ccc2cc(-c3cn4cc(C)nc(C)c4n3)c(=O)oc2c1` [Compound 931, 3-(6,8-dimethylimidazo[1,2-a]pyrazin-2-yl)-7-{3-[(2-methoxyethyl)amino]propyl}-2H-chromen-2-one]: the melting point was 147 to 150 °C. In addition, the EC (1.5-fold) in data set [1] (setting [3]) was less than 0.1 µM. Also, in data set [2], the EC1.5x (concentration giving 1.5-fold Smn protein increase) lay in the range of 300 to 1000 nM; the “maximum fold (Fold) increase” value was “**** (fold increase between >1.5 and ≤1.65)”.
For `COc1ccc(-c2cc3c(F)cc(N4CCNCC4)cc3oc2=O)cc1OC` [Compound 404, 3-(3,4-dimethoxyphenyl)-5-fluoro-7-(piperazin-1-yl)-2H-chromen-2-one], the melting point was 240 °C (dec.). In addition, the EC (1.5-fold) in data set [1] (setting [3]) lay in the range of 0.3 to 1 µM. In addition, in data set [2], the EC1.5x (concentration giving 1.5-fold Smn protein increase) is 1000 to 3000 nM; the “maximum fold (Fold) increase” value is “**** (fold increase between >1.5 and ≤1.65)”.
As for `CN1CCN(c2ccc3cc(-c4cn5cc(F)cc(F)c5n4)c(=O)oc3c2)CC1` [Compound 522, 3-(6,8-difluoroimidazo[1,2-a]pyridin-2-yl)-7-(4-methylpiperazin-1-yl)-2H-chromen-2-one], the melting point was 232 to 238 °C. Also, the EC (1.5-fold) in data set [1] (setting [3]) lay within 0.3 to 1 µM. Further, the “maximum fold (Fold) increase” value in data set [2] was “* (maximum fold increase of ≤1.2)”.
With `Cc1cn2cc(-c3cc4ccc(N5CCC(N)CC5)cc4oc3=O)nc2c(C)n1` [Compound 919, 7-(4-aminopiperidin-1-yl)-3-(6,8-dimethylimidazo[1,2-a]pyrazin-2-yl)-2H-chromen-2-one], the melting point is 262 to 269 °C. Also, in data set [1] (setting [3]), the EC (1.5-fold) is less than 0.1 µM. In addition, in data set [2], the EC1.5x (concentration giving 1.5-fold Smn protein increase) was less than 300 nM; the “maximum fold (Fold) increase” value was “**** (fold increase between >1.5 and ≤1.65)”.
Take `Cc1cn2cc(-c3cc4ccc(N5CCN6CCCCC6C5)cc4oc3=O)nc2c(C)n1` (centres unmarked) [Compound 633, 3-(6,8-dimethylimidazo[1,2-a]pyrazin-2-yl)-7-(octahydro-2H-pyrido[1,2-a]pyrazin-2-yl)-2H-chromen-2-one]: the melting point lay within 225 to 227 °C. Further, the EC (1.5-fold) in data set [1] (setting [3]) is less than 0.1 µM. In addition, the “maximum fold (Fold) increase” value in data set [2] was “*** (fold increase between >1.35 and ≤1.5)”.
With `O=c1oc2cc(N3CCNCC3)ccc2cc1Nc1ccccc1` [Compound 75, 3-(phenylamino)-7-(piperazin-1-yl)-2H-chromen-2-one], the melting point lay within 140 to 143 °C. Moreover, the EC (1.5-fold) in data set [1] (24 h) lay in the range of 3 to 30 µM. For the same compound, the “maximum fold (Fold) increase” value in data set [2] is “* (maximum fold increase of ≤1.2)”.
`Cc1cn2cc(-c3cc4ccc(N5CCN(C(C)C)[C@@H](C)C5)cc4oc3=O)cc2c(C)n1` [Compound 768, 3-(1,3-dimethylpyrrolo[1,2-a]pyrazin-7-yl)-7-[(3S)-3-methyl-4-(propan-2-yl)piperazin-1-yl]-2H-chromen-2-one]: the melting point is 153 to 156 °C. Also, the EC (1.5-fold) in data set [1] (setting [3]) was less than 0.1 µM. Moreover, in data set [2], the EC1.5x (concentration giving 1.5-fold Smn protein increase) is less than 300 nM; the “maximum fold (Fold) increase” value was “**** (fold increase between >1.5 and ≤1.65)”.
With `Cc1cc(F)c2nc(-c3cc4ccc(N5CCN[C@@H](C)C5)cc4oc3=O)cn2c1` [Cpd 421, 3-(8-fluoro-6-methylimidazo[1,2-a]pyridin-2-yl)-7-[(3S)-3-methylpiperazin-1-yl]-2H-chromen-2-one], the melting point was 250 to 255 °C. Besides, the EC (1.5-fold) in data set [1] (setting [3]) was less than 0.1 µM. Besides, in data set [2], the EC1.5x (concentration giving 1.5-fold Smn protein increase) is less than 300 nM; the “maximum fold (Fold) increase” value was “*** (fold increase between >1.35 and ≤1.5)”.
`Cc1cn2cc(-c3cc4ccc(N5C[C@H]6CCCN[C@H]6C5)cc4oc3=O)nc2cn1` [Compound 719, 3-(6-methylimidazo[1,2-a]pyrazin-2-yl)-7-[(4aR,7aR)-octahydro-6H-pyrrolo[3,4-b]pyridin-6-yl]-2H-chromen-2-one] returned a melting point of 282 to 291 °C. Moreover, the EC (1.5-fold) in data set [1] (setting [3]) was less than 0.1 µM. Also, the “maximum fold (Fold) increase” value in data set [2] is “** (fold increase between >1.2 and ≤1.35)”.
Regarding `Cc1cn2cc(-c3cc4ccc(N5CCN6CCC[C@H]6C5)cc4oc3=O)ccc2n1` [Cpd 651, 7-[(8aS)-hexahydropyrrolo[1,2-a]pyrazin-2(1H)-yl]-3-(2-methylimidazo[1,2-a]pyridin-6-yl)-2H-chromen-2-one], the melting point was in the range of 231 to 233 °C. In data set [1] (setting [3]), the EC (1.5-fold) is less than 0.1 µM. In addition, in data set [2], the EC1.5x (concentration giving 1.5-fold Smn protein increase) is less than 300 nM; the “maximum fold (Fold) increase” value is “*** (fold increase between >1.35 and ≤1.5)”.
For `O=c1oc2cc(CN3CCC(O)CC3)ccc2cc1-c1nc2c(Cl)cccc2s1` [Compound 273, 3-(4-chloro-1,3-benzothiazol-2-yl)-7-[(4-hydroxypiperidin-1-yl)methyl]-2H-chromen-2-one], the melting point lay in the range of 193 to 196 °C. In addition, the EC (1.5-fold) in data set [1] (setting [3]) is 1 to 3 µM.
`Cn1ccc(-c2cc3ccc(N4CCNCC4)cc3oc2=O)n1` [Cpd 38, 3-(1-methyl-1H-pyrazol-3-yl)-7-(piperazin-1-yl)-2H-chromen-2-one] displayed a melting point of 224 to 228 °C. The EC (1.5-fold) in data set [1] (24 h) fell in the range of 1 to 3 µM.
Take `CCN1CC[C@@H](Oc2ccc3cc(-c4nc5ccccc5s4)c(=O)oc3c2)C1` [Compound 127, 3-(1,3-benzothiazol-2-yl)-7-{[(3R)-1-ethylpyrrolidin-3-yl]oxy}-2H-chromen-2-one]: the melting point was in the range of 195 to 198 °C. Further, the EC (1.5-fold) in data set [1] (setting [3]) was 1 to 3 µM.
For `Cc1cccc2oc(-c3cc4ccc(N5CCN(C)CC5)cc4oc3=O)nc12` [Compound 21, 3-(4-methyl-1,3-benzoxazol-2-yl)-7-(4-methylpiperazin-1-yl)-2H-chromen-2-one] the same measures were 217 to 219 °C and 3 to 30 µM.
For `Cc1cccn2cc(-c3cc4ccc(N5CCNCC5)cc4oc3=O)nc12` [Compound 44, 3-(8-methylimidazo[1,2-a]pyridin-2-yl)-7-(piperazin-1-yl)-2H-chromen-2-one], the melting point lay within 190 to 193 °C. For the same compound, the EC (1.5-fold) in data set [1] (setting [3]) fell in the range of 0.3 to 1 µM.
`CN1CCN(c2ccc3cc(-c4ccn(-c5ccccc5)n4)c(=O)oc3c2)CC1` [Cpd 74, 7-(4-methylpiperazin-1-yl)-3-(1-phenyl-1H-pyrazol-3-yl)-2H-chromen-2-one] registered a melting point of 152 to 159 °C. Moreover, in data set [1] (setting [3]), the EC (1.5-fold) was in the range of 3 to 30 µM.
